Data as given in patent publication US20250144230A1, “LINKERS FOR USE IN ANTIBODY DRUG CONJUGATES” (Orum Therapeutics, Inc., priority 2021, published 2025).
Where a SMILES comes first, the peptide text is derived from it. The star is where a group is joined. X1 = CSCCc1ccc(NC(=O)NCc2ccc3c(c2)CN(C2CCC(=O)N(CN*)C2=O)C3=O)cc1Cl; Hexanoyl(6-maleimido) = O=C1C=CC(=O)N1CCCCCC(=O)*

T1: papain (Carica papaya, UniProt P00784)
T1 sequence (P00784 134-345): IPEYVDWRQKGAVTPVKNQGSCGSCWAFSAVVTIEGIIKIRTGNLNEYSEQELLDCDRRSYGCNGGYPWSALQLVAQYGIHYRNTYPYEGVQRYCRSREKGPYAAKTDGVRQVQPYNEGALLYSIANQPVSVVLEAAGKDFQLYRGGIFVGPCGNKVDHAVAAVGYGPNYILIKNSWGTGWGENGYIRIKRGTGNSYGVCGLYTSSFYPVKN


Tests used:
papain = target: T1, papain; experiment: Papain digestion 2 of linker-payload compounds, in vitro payload release; format: biochemical; conditions: for % Payload Released / By-Products: GGFG*G (payload-CH2NHC(O)CH2NH2, cleavage between two glycines of linker) / By-Products: uncleaved: 10 μM compound, papain 2 molar equivalents, 2 hours; for % Payload Released: PBS pH 7.4, 5% DMA, room temperature; for yield of desired payload released by papain (in words): papain treatment; for By-Products: GGFG*G (payload-CH2NHC(O)CH2NH2, cleavage between two glycines of linker) / By-Products: uncleaved: PBS pH 7.4, room temperature
Procedure: 10 μM of either Compound (XL), Compound (XI), Compound (XIV), Compound (XV), Compound (XII), or Compound (XVII) (PBS pH 7.4, 5% DMA co-solvent) was incubated with papain (2 molar equivalents) at room temperature for 2 hours with gentle shaking. The digests were extracted with 5 volumes of ice-cold acetonitrile and dried down, followed by reconstitution in 95:5:0.1 water:acetonitrile:formic acid. The samples were submitted for LC-MS analysis (Thermo Exploris 240) and using the appropriate reference standards, the released payload and/or incompletely cleaved linker byproducts were identified and quantified.

CD33 = target: T2, CD33 (UniProt P20138 18-364, limits assumed); experiment: flow cytometry binding to MV4-11 cells (procedure of Example 10)
T2 construct: whole, on cells; Endogenous antigen on the cell line; also called CD33 surface antigens
T2 sequence (P20138 18-364 limits assumed): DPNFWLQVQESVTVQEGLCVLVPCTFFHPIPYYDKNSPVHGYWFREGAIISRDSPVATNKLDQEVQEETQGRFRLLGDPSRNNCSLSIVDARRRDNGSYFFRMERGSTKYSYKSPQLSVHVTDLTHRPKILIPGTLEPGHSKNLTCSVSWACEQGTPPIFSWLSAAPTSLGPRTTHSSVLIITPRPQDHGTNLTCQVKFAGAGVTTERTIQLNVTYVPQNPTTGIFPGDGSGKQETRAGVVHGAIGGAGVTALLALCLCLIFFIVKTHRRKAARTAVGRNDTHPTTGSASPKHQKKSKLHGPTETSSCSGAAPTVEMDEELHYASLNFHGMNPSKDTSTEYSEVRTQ

Molecule	% Payload Released (papain) [%]	yield of desired payload released by papain (in words) (papain)	By-Products: GGFG*G (payload-CH2NHC(O)CH2NH2, cleavage between two glycines of linker) (papain)	By-Products: uncleaved (papain)	EC50 (CD33) [nM]
CNCCOCCc1ccc(NC(=O)NCc2ccc3c(c2)CN(C2CCC(=O)N(CNC(=O)CNC(=O)[C@H](Cc4ccccc4)NC(=O)CNC(=O)CNC(=O)CCCCCN4C(=O)C=CC4=O)C2=O)C3=O)cc1Cl (stereo partly drawn) [Compound (XVIII), N-{[({[(1S)-1-({[({3-[5-({[(3-chloro-4-{2-[2-(methylamino)ethoxy]ethyl}phenyl)carbamoyl]amino}methyl)-1-oxo-3H-isoindol-2-yl]-2,6-dioxopiperidin-1-yl}methyl)carbamoyl]methyl}carbamoyl)-2-phenylethyl]carbamoyl}methyl)carbamoyl]methyl}-6-(2,5-dioxopyrrol-1-yl)hexanamide]	97.8	excellent yield			
O=C(CCCCCN1C(=O)C=CC1=O)NCC(=O)NCC(=O)N[C@@H](Cc1ccccc1)C(=O)NCC(=O)NCC(=O)NCN1C(=O)CCC(N2Cc3c(C#CCCCNC(=O)c4ccc(NC(=O)[C@@H]5NC6(CCCCC6)[C@@]6(C(=O)Nc7cc(Cl)ccc76)[C@H]5c5cccc(Cl)c5F)cc4)cccc3C2=O)C1=O (stereo partly drawn) [Compound (XII), (3′R,4'S,5′R)-6″-chloro-4′-(3-chloro-2-fluorophenyl)-N-(4-{[5-(2-{1-[(2-{2-[(2S)-2-(2-{2-[6-(2,5-dioxopyrrol-1-yl)hexanamido]acetamido}acetamido)-3-phenylpropanamido]acetamido}acetamido)methyl]-2,6-dioxopiperidin-3-yl}-1-oxo-3H-isoindol-4-yl)pent-4-yn-1-yl]carbamoyl}phenyl)-2″-oxo-1″H-dispiro[cyclohexane-1,2′-pyrrolidine-3′,3″-indole]-5′-carboxamide]	9.4	lower yields of the desired payload	57.0%,	uncleaved 33.6%	
Cc1sc2c(c1C)C(c1ccc(Cl)cc1)=N[C@@H](CC(=O)NCCCCCC(=O)NCc1cccc3c1C(=O)N(C1CCC(=O)N(CNC(=O)CNC(=O)CNC(=O)[C@H](Cc4ccccc4)NC(=O)CNC(=O)CNC(=O)CCCCCN4C(=O)C=CC4=O)C1=O)C3=O)c1nnc(C)n1-2 (stereo partly drawn) [Compound (XIV), 6-{2-[(9S)-7-(4-chlorophenyl)-4,5,13-trimethyl-3-thia-1,8,11,12-tetraazatricyclo[8.3.0.0^{2,6}]trideca-2(6),4,7,10,12-pentaen-9-yl]acetamido}-N-[(2-{1-[(2-{2-[(2S)-2-(2-{2-[6-(2,5-dioxopyrrol-1-yl)hexanamido]acetamido}acetamido)-3-phenylpropanamido]acetamido}acetamido)methyl]-2,6-dioxopiperidin-3-yl}-1,3-dioxoisoindol-4-yl)methyl]hexanamide]	11.6	lower yields of the desired payload	40.5%,	uncleaved 47.9%	
N#Cc1ccc(O[C@H]2CC[C@H](NC(=O)c3ccc(N4CCC(CN5CCN(c6cc7c(cc6F)C(=O)N(C6CCC(=O)N(CNC(=O)CNC(=O)CNC(=O)[C@H](Cc8ccccc8)NC(=O)CNC(=O)CNC(=O)CCCCCN8C(=O)C=CC8=O)C6=O)C7=O)CC5)CC4)nn3)CC2)cc1Cl (stereo partly drawn) [Compound (XV), 6-(4-{[4-(2-{1-[(2-{2-[(2S)-2-(2-{2-[6-(2,5-dioxopyrrol-1-yl)hexanamido]acetamido}acetamido)-3-phenylpropanamido]acetamido}acetamido)methyl]-2,6-dioxopiperidin-3-yl}-6-fluoro-1,3-dioxoisoindol-5-yl)piperazin-1-yl]methyl}piperidin-1-yl)-N-[(1r,4r)-4-(3-chloro-4-cyanophenoxy)cyclohexyl]pyridazine-3-carboxamide]	5.8	lower yields of the desired payload	78.3%,	uncleaved 15.8%	
Cn1cc(-c2cc(NC(=O)CCCCC(=O)NCCCCNc3cccc4c3C(=O)N(C3CCC(=O)N(CNC(=O)CNC(=O)[C@H](Cc5ccccc5)NC(=O)CNC(=O)CNC(=O)CCCCCN5C(=O)C=CC5=O)C3=O)C4=O)ccc2Oc2ccc(F)cc2F)c2cc[nH]c2c1=O.O=C(O)C(F)(F)F (stereo partly drawn) [Compound (XL), N′-[4-(2,4-difluorophenoxy)-3-{6-methyl-7-oxo-1H-pyrrolo[2,3-c]pyridin-4-yl}phenyl]-N-[4-({2-[1-({2-[(2S)-2-(2-{2-[6-(2,5-dioxopyrrol-1-yl)hexanamido]acetamido}acetamido)-3-phenylpropanamido]acetamido}methyl)-2,6-dioxopiperidin-3-yl]-1,3-dioxoisoindol-4-yl}amino)butyl]hexanediamide; trifluoroacetic acid]	90.2	excellent yield			
CSCCc1ccc(NC(=O)NCc2ccc3c(c2)CN(C2CCC(=O)N(CNC(=O)CNC(=O)CNC(=O)[C@H](Cc4ccccc4)NC(=O)CNC(=O)CNC(=O)CCCCCN4C(=O)C=CC4=O)C2=O)C3=O)cc1Cl (stereo partly drawn) [Compound (XVII), N-{[({[(1S)-1-[({[({[3-(5-{[({3-chloro-4-[2-(methylsulfanyl)ethyl]phenyl}carbamoyl)amino]methyl}-1-oxo-3H-isoindol-2-yl)-2,6-dioxopiperidin-1-yl]methyl}carbamoyl)methyl]carbamoyl}methyl)carbamoyl]-2-phenylethyl]carbamoyl}methyl)carbamoyl]methyl}-6-(2,5-dioxopyrrol-1-yl)hexanamide] ({Hexanoyl(6-maleimido)}-GGFGG-X1)	10.7	lower yields of the desired payload	72.5%,	uncleaved 16.8%	
CD33-D Antibody-Compound (XL) conjugate (antibody, V domains shown, Compound (XL) linker-payload on reduced interchain cysteine of the constant region, outside this domain; Compound (XL) linker-payload (maleimide) on reduced interchain cysteines of the constant regions, outside this domain; 8.0 Compound (XL)/antibody by LC-MS (Example 2-1), Antibody-drug conjugate (BRD4 degrader payload)) VH: EVQLVQSGAEVKKPGSSVKVSCKASGYTITDSNIHWVRQAPGQSLEWIGYIYPYNGGTDYNQKFKNRATLTVDNPTNTAYMELSSLRSEDTAFYYCVNGNPWLAYWGQGTLVTVSS VL: DIQLTQSPSTLSASVGDRVTITCRASESLDNYGIRFLTWFQQKPGKAPKLLMYAASNQGSGVPSRFSGSGSGTEFTLTISSLQPDDFATYYCQQTKEVPWSFGQGTKVEVK					0.27
CD33-D antibody (antibody, V domains shown, also called anti-CD33 antibody CD33-D) VH: EVQLVQSGAEVKKPGSSVKVSCKASGYTITDSNIHWVRQAPGQSLEWIGYIYPYNGGTDYNQKFKNRATLTVDNPTNTAYMELSSLRSEDTAFYYCVNGNPWLAYWGQGTLVTVSS VL: DIQLTQSPSTLSASVGDRVTITCRASESLDNYGIRFLTWFQQKPGKAPKLLMYAASNQGSGVPSRFSGSGSGTEFTLTISSLQPDDFATYYCQQTKEVPWSFGQGTKVEVK					0.22
CD33-D Antibody-Compound (XIV) conjugate (antibody, V domains shown, Compound (XIV) linker-payload on reduced interchain cysteine of the constant region, outside this domain; Compound (XIV) linker-payload on reduced interchain cysteines of the constant regions, outside this domain; 7.9 Compound (XIV)/antibody by LC-MS (Example 2-2), Antibody-drug conjugate) VH: EVQLVQSGAEVKKPGSSVKVSCKASGYTITDSNIHWVRQAPGQSLEWIGYIYPYNGGTDYNQKFKNRATLTVDNPTNTAYMELSSLRSEDTAFYYCVNGNPWLAYWGQGTLVTVSS VL: DIQLTQSPSTLSASVGDRVTITCRASESLDNYGIRFLTWFQQKPGKAPKLLMYAASNQGSGVPSRFSGSGSGTEFTLTISSLQPDDFATYYCQQTKEVPWSFGQGTKVEVK					0.22
